Measurements taken from patent US8846704B2, “Thiopyrimidine-based compounds and uses thereof” (YM Biosciences Austraila Pty Ltd, priority 2007, dated 2014).

Target: T1, BaF3 TELJAK3 cells (Homo sapiens, UniProt P52333)
T1 construct: fused on or other part: TEL (ETV6) N-terminal part, coding nucleotides 1-487, serves as the oligomerising partner; It is fused through a Sal I site to the JAK3 kinase domain and expressed from pTRE2 in BaF3 cells bearing pTET-off; P41212 (Transcription factor ETV6)
T1 sequence (P52333 1-1124): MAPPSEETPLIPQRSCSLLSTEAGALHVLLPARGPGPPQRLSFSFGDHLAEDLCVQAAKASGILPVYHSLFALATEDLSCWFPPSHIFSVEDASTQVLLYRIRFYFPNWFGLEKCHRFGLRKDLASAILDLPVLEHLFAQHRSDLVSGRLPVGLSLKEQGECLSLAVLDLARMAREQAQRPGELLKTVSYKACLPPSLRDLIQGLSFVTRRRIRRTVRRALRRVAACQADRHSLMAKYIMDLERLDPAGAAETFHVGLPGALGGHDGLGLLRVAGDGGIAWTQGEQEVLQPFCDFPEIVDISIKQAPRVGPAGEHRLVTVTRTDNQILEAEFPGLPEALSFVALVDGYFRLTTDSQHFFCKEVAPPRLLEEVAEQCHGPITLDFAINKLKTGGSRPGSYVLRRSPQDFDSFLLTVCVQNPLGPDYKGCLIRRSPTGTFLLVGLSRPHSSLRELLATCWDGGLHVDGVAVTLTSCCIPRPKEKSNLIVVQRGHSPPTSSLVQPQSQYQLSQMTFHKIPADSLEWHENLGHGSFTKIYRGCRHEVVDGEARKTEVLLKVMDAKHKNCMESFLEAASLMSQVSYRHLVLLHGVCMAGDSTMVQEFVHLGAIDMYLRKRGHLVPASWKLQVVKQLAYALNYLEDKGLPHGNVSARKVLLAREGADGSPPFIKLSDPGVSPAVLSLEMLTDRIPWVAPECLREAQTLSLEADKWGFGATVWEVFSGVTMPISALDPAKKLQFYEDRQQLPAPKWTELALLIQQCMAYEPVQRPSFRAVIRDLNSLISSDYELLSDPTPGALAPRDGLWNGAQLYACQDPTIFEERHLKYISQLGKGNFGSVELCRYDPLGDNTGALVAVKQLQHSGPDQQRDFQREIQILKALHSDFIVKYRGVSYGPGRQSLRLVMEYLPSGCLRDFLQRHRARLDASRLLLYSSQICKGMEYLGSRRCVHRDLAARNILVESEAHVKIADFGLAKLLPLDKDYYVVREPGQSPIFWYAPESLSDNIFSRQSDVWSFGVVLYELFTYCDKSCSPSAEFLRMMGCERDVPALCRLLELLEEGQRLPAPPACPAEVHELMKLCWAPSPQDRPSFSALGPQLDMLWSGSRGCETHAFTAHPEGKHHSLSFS
Test: Cellular screening, BaF3 TEL:JAK3 cells, Alamar Blue
Format: cell-based
Settings: 40 hr, read-out: BafT_J3 IC50_nM
In short: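 BaF3 cells carrying pTET-off and a TEL–JAK3 kinase-domain fusion, selected for growth-factor independence, were grown in DMEM with 10% Tet-approved FBS without WEHI 3B medium. Cells were exposed to compounds for 40 h at 37 °C, 5% CO2. Viability was read with Alamar Blue (4–6 h) at 544 nm.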

C=CC(=O)Nc1cccc(Nc2nccc(Sc3cccc(OC)c3)n2)c1 [Compound 31, N-(3-(4-(3-methoxyphenylthio)pyrimidin-2-ylao)phenyl)acrylamide] and C=CC(=O)Nc1ccc(Sc2ccnc(Nc3ccccc3)n2)cc1 [Compound 350, N-(4-(2-(phenylao)pyrimidin-4-ylthio)phenyl)acrylamide] cannot be ordered by GI50: under 1 µM for the first, under 20 µM for the second.

C=CC(=O)Nc1ccc(Sc2ccnc(Nc3cccc(S(=O)(=O)NCc4ccccc4)c3)n2)cc1 [Compound 366, N-(4-(2-(3-(N-benzylsulfamoyl)phenylao)pyrimidin-4-ylthio)phenyl)acrylamide] and C=CC(=O)Nc1ccc(Sc2ccnc(Nc3ccc(S(N)(=O)=O)cc3)n2)cc1 [Compound 352, N-(4-(2-(4-sulfamoylphenylao)pyrimidin-4-ylthio)phenyl)acrylamide] cannot be ordered by GI50: under 5 µM for the first, under 20 µM for the second.

C=CC(=O)Nc1ccc(Sc2ccnc(Nc3ccc(N4CCOCC4)cc3)n2)c(Cl)c1C [Compound 161, N-(3-chloro-2-methyl-4-(2-(4-morpholinophenylao)pyrimidin-4-ylthio)phenyl)acrylamide] and O=C(/C=C/Cl)Nc1ccc(Sc2ccnc(Nc3ccc(N4CCOCC4)cc3)n2)cc1 [Compound 342, (E)-3-chloro-N-(4-(2-(4-morpholinophenylao)pyrimidin-4-ylthio)phenyl)acrylamide] cannot be ordered by GI50: under 1 µM for the first, under 5 µM for the second.

C=CC(=O)Nc1ccc(Sc2nc(Nc3ccc(CNS(C)(=O)=O)cc3)ncc2C)cc1 [Compound 294, N-(4-(5-methyl-2-(4-(methylsulfonamidomethyl)phenylao)pyrimidin-4-ylthio)phenyl)acrylamide] and C=CC(=O)Nc1ccc(Sc2ccnc(Nc3ccc(S(=O)(=O)NCCC(C)C)cc3)n2)cc1 [Compound 371, N-(4-(2-(4-(N-isopentylsulfamoyl)phenylao)pyrimidin-4-ylthio)phenyl)acrylamide] cannot be ordered by GI50: under 1 µM for the first, under 5 µM for the second.

CCOC(=O)/C=C\C(=O)Nc1ccc(Sc2nc(Nc3ccc(N4CCOCC4)cc3)ncc2C)cc1 [Compound 388, (Z)-ethyl 4-(4-(5-methyl-2-(4-morpholinophenylao)pyrimidin-4-ylthio)phenylao)-4-oxobut-2-enoate] and Cc1cnc(Nc2ccc(N3CCOCC3)cc2)nc1Sc1ccc(NC(=O)/C=C/Cl)cc1 [Compound 343, (E)-3-chloro-N-(4-(5-methyl-2-(4-morpholinophenylao)pyrimidin-4-ylthio)phenyl)acrylamide] cannot be ordered by GI50: under 5 µM for the first, under 5 µM for the second.

C=CC(=O)Nc1ccc(Sc2ccnc(Nc3ccc(S(=O)(=O)N4CCOCC4)cc3)n2)cc1 [Compound 367, N-(4-(2-(4-(morpholinosulfonyl)phenylao)pyrimidin-4-ylthio)phenyl)acrylamide] and NC(=O)c1nccn1Cc1ccc(Sc2ccnc(Nc3ccc(N4CCOCC4)cc3)n2)cc1 [Compound 149, 1-(4-(2-(4-morpholinophenylao)pyrimidin-4-ylthio)benzyl)-1H-imidazole-2-carboxamide] cannot be ordered by GI50: under 5 µM for the first, under 5 µM for the second.

First: Cc1cnc(Nc2ccc(N3CCOCC3)cc2)nc1Sc1ccc(NC(=O)COCC(=O)O)cc1 [Compound 188, 2-(2-(4-(5-methyl-2-(4-morpholinophenylao)pyrimidin-4-ylthio)phenylao)-2-oxoethoxy)acetic acid]
Second: Cc1cnc(Nc2ccc(N3CCOCC3)cc2)nc1Sc1ccc(N)cc1 [Compound 126, 4-(4-aophenylthio)-5-methyl-N-(4-morpholinophenyl)pyrimidin-2-ae]
The GI50 of the first is higher: over 20 µM for the first, under 5 µM for the second.

First: Cc1cnc(Nc2ccc(N3CCOCC3)cc2)nc1Sc1ccc(C#N)cc1 [Compound 136, 4-(5-methyl-2-(4-morpholinophenylao)pyrimidin-4-ylthio)benzonitrile]
Second: Cc1cnc(Nc2ccc(N3CCOCC3)cc2)nc1Sc1ccc(N2C(=O)C=CC2=O)cc1 [Compound 390, 1-(4-(5-methyl-2-(4-morpholinophenylao)pyrimidin-4-ylthio)phenyl)-1H-pyrrole-2,5-dione]
The GI50 of the first is higher: over 20 µM for the first, under 5 µM for the second.

COc1cc(Sc2ccnc(Nc3ccc(N4CCOCC4)cc3)n2)ccc1N [Compound 117, 4-(4-ao-3-methoxyphenylthio)-N-(4-morpholinophenyl)pyrimidin-2-ae] was tested, and the GI50 was over 20 µM.
